Patent publication US20230212120A1, “SMALL MOLECULE INHIBITORS OF GRK5 AND GRK5 SUBFAMILY MEMBERS AND USES THEREOF” (The Regents of the University of Michigan, priority 2020, published 2023)
Values after ≈ are worked out from the molar mass of the structure shown. Values joined by “and” are separate entries in the source; they are usually repeats but may differ in a detail not shown here. Equal values may be shown once. Read-outs that look alike come from different tables or passages of the source.

Key:
PKA = PKA (Homo sapiens, UniProt P17612); experiment: PKA inhibition assay (ADP-Glo); assay type: biochemical
Protocol: The PKA inhibition assays were performed with the ADP-Glo system (Promega Corporation) according to the manufactory's instruction. […] After the initial reaction, ADP-Glo reagent was added to the reaction and allowed to incubate for an additional 40 min. Lastly, the kinase detection reagent was added and allowed to incubate for 30 min, and the luminescence was measured with a FlexStation 3 Multi-mode Microplate Reader (Molecular Devices). All data was analyzed in the same way as GRK inhibition assay. Experiments were performed three times in duplicate.
Standard control compounds are run during each assay to assess consistency across time, experimenters, and subtle changes in assay conditions that are sometimes required to keep some of the compounds soluble and disperse (such as through addition of DDM or 3% DMSO). Paroxetine were used as controls for GRK2 and PKA, and CCG215022 for GRK5.

bovine GRK2 = target: T1, bovine GRK2 (Bos taurus, UniProt P21146); experiment: radiometric GRK2 inhibition assay (tubulin phosphorylation)
T1 sequence (P21146 1-689): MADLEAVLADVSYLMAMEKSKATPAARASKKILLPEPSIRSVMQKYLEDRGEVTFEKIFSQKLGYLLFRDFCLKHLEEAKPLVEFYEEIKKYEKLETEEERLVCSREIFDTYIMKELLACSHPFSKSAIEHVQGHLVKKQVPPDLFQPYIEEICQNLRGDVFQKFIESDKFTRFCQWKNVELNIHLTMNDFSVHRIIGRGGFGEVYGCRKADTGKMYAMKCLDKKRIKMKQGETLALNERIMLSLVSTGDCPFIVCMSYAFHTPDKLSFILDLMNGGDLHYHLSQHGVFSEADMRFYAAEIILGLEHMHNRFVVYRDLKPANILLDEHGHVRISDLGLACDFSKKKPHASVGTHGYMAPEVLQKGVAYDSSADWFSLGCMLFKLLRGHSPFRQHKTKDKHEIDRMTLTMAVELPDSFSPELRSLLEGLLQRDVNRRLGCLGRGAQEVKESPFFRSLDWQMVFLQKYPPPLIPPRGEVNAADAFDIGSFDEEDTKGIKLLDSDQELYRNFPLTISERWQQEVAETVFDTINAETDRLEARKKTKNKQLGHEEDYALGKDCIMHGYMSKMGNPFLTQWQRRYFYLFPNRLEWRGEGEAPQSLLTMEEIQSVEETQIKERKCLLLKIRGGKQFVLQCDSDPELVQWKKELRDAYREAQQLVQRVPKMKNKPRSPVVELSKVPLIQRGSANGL

GRK5 = GRK5 (Homo sapiens, UniProt P34947); experiment: radiometric GRK5 inhibition assay (tubulin phosphorylation)
[1] = Thermodynamic solubility (Analiza Inc.); assay type: physicochemical; settings: for pH After Assay / solubility thermodynamic: Water; for pH After Assay: solubility assay; for solubility thermodynamic: n=1
Excerpt: Experimental data collected by Analiza Inc. Experimental values represent an average of n=1 experiments.

[2] = read-out: GRK2 IC50, Table 1, μM ± SD
[3] = read-out: GRK2 IC50, Table 2, μM ± SD

GRK5, sequence (P34947 whole entry): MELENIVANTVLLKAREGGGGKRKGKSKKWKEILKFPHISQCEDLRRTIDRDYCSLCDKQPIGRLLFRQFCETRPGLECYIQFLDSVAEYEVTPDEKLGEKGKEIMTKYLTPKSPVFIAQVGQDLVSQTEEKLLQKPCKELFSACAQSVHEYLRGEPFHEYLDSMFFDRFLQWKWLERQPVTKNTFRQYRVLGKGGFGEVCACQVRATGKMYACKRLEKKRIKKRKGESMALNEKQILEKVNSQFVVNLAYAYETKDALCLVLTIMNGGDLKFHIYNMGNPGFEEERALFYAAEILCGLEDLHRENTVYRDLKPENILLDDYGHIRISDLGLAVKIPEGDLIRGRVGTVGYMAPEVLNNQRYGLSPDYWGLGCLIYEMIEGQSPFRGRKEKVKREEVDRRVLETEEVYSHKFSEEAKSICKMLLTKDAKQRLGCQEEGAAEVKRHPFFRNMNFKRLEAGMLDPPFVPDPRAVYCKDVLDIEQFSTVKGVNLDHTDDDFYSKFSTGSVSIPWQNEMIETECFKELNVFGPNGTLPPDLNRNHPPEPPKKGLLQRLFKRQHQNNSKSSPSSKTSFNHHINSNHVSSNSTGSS

SMILES: CC1=C(C(=O)Nc2ccc3[nH]ncc3c2)C(c2ccc(F)c(C(=O)NCc3ccccn3)c2)NC(=O)N1 (centres unmarked) [CCG 215022, reference compound]
- IC50 (PKA; Table 1, μM ± SD): > 250 µM

SMILES: CCN(CC)CCNC(=O)c1c(C)[nH]c(/C=C2\C(=O)Nc3ccc(C(=O)N[C@H](C)c4ccccc4)cc32)c1C [Compound 5a, (R,Z)-3-((4-((2-(diethylamino)ethyl)carbamoyl)-3,5-dimethyl-1H-pyrrol-2-yl)methylene)-2-oxo-N-(1-phenylethyl)indoline-5-carboxamide]
- IC50 (bovine GRK2; [2]): 1.1 ± 0.7 µM
- IC50 (PKA; Table 1, μM ± SD): > 250 µM

SMILES: CCN(CC)CCNC(=O)c1c(C)[nH]c(/C=C2\C(=O)Nc3ccc(C(=O)N[C@@H](C)c4ccccc4)cc32)c1C [Compound 5b, (S,Z)-3-((4-((2-(diethylamino)ethyl)carbamoyl)-3,5-dimethyl-1H-pyrrol-2-yl)methylene)-2-oxo-N-(1-phenylethyl)indoline-5-carboxamide]
- IC50 (bovine GRK2; [2]): 44 ± 18 µM

SMILES: C=CCNC(=O)c1c(C)[nH]c(/C=C2\C(=O)Nc3ccc(C(=O)N[C@H](C)c4ccccc4)cc32)c1C [Compound 5d, (R,Z)-3-((4-(allylcarbamoyl)-3,5-dimethyl-1H-pyrrol-2-yl)methylene)-2-oxo-N-(1-phenylethyl)indoline-5-carboxamide]
- IC50 (bovine GRK2; [2]): 22 ± 10 µM
- IC50 (PKA; Table 1, μM ± SD): > 250 µM

SMILES: C=CCCNC(=O)c1c(C)[nH]c(/C=C2\C(=O)Nc3ccc(C(=O)N[C@H](C)c4ccccc4)cc32)c1C [Compound 5f, (R,Z)-3-((4-(but-3-en-1-ylcarbamoyl)-3,5-dimethyl-1H-pyrrol-2-yl)methylene)-2-oxo-N-(1-phenylethyl)indoline-5-carboxamide]
- IC50 (GRK5): 1.9 ± 0.05 µM
- GRK2/GRK5 (GRK5; Table 1, ratio of IC50 values): 330
- IC50 (bovine GRK2; [2]): 630 ± 200 µM

SMILES: Cc1[nH]c(/C=C2\C(=O)Nc3ccc(C(=O)N[C@H](C)c4ccccc4)cc32)c(C)c1[N+](=O)[O-] [Compound 7a, (R,Z)-3-((3,5-dimethyl-4-nitro-1H-pyrrol-2-yl)methylene)-2-oxo-N-(1-phenylethyl)indoline-5-carboxamide]
- IC50 (bovine GRK2; [2]): 7.2 ± 3 µM

SMILES: C=CC(=O)Nc1c(C)[nH]c(/C=C2\C(=O)Nc3ccc(C(=O)N[C@H](C)c4ccccc4)cc32)c1C [Compound 9b, (R,Z)-3-((4-acrylamido-3,5-dimethyl-1H-pyrrol-2-yl)methylene)-2-oxo-N-(1-phenylethyl)indoline-5-carboxamide]
- IC50 (bovine GRK2; [2]): 87 ± 30 µM

SMILES: C=CS(=O)(=O)Nc1c(C)[nH]c(/C=C2\C(=O)Nc3ccc(C(=O)N[C@H](C)c4ccccc4)cc32)c1C [Compound 9c, (R,Z)-3-((3,5-dimethyl-4-(vinylsulfonamido)-1H-pyrrol-2-yl)methylene)-2-oxo-N-(1-phenylethyl)indoline-5-carboxamide]
- IC50 (bovine GRK2; [2]): 280 ± 110 µM

SMILES: Cc1[nH]c(/C=C2\C(=O)Nc3ccc(C(=O)N[C@H](C)c4ccccc4)cc32)c(C)c1NC(=O)CCl [Compound 9e, (R,Z)-3-((4-(2-chloroacetamido)-3,5-dimethyl-1H-pyrrol-2-yl)methylene)-2-oxo-N-(1-phenylethyl)indoline-5-carboxamide]
- IC50 (bovine GRK2; [2]): 350 ± 100 µM
- IC50 (PKA; Table 1, μM ± SD): > 250 µM
- pH After Assay [1]: 5
- solubility thermodynamic ([1]; thermodynamic from solid): 75.1 µM and 35.7 µg/mL

SMILES: Cc1[nH]c(/C=C2\C(=O)Nc3ccc(C(=O)N[C@H](C)c4ccccc4)cc32)c(C)c1NC(=O)/C=C/CN(C)C [Compound 9f, (Z)-3-((4-((E)-4-(dimethylamino)but-2-enamido)-3,5-dimethyl-1H-pyrrol-2-yl)methylene)-2-oxo-N—((R)-1-phenylethyl)indoline-5-carboxamide]
- IC50 (bovine GRK2; [2]): 17 ± 10 µM
- pH After Assay [1]: 5
- solubility thermodynamic ([1]; thermodynamic from solid): 125 µM and 64 µg/mL

SMILES: Cc1[nH]c(/C=C2\C(=O)Nc3ccc(C(=O)N[C@H](C)c4ccccc4)cc32)c(C)c1NC(=O)C(O)CCl (stereo partly drawn) [Compound 9h, (Z)-3-((4-(3-chloro-2-hydroxypropanamido)-3,5-dimethyl-1H-pyrrol-2-yl)methylene)-2-oxo-N—((R)-1-phenylethyl)indoline-5-carboxamide]
- IC50 (bovine GRK2; [2]): 6.7 ± 5 µM
- IC50 (PKA; Table 1, μM ± SD): > 250 µM

SMILES: Cc1cccc([C@@H](C)NC(=O)c2ccc3c(c2)/C(=C/c2[nH]c(C)c(NC(=O)CCl)c2C)C(=O)N3)c1 [Compound 9i, (R,Z)-3-((4-(2-chloroacetamido)-3,5-dimethyl-1H-pyrrol-2-yl)methylene)-2-oxo-N-(1-(m-tolyl)ethyl)indoline-5-carboxamide]
- GRK2/GRK5 (GRK5; Table 2, ratio of IC50 values): 360
- IC50 (bovine GRK2; [3]): 11 ± 6 µM
- IC50 (PKA; Table 2, μM ± SD): > 250 µM

SMILES: Cc1[nH]c(/C=C2\C(=O)Nc3ccc(C(=O)N[C@H](C)c4ccncc4)cc32)c(C)c1NC(=O)CCl [Compound 9k, (R,Z)-3-((4-(2-chloroacetamido)-3,5-dimethyl-1H-pyrrol-2-yl)methylene)-2-oxo-N-(1-(pyridin-4-yl)ethyl)indoline-5-carboxamide]
- IC50 (bovine GRK2; [3]): 1.7 ± 2 µM
- aqueous solubility relative to 9e ([1]; compared to 9e): less than 2 fold

SMILES: Cc1[nH]c(/C=C2\C(=O)Nc3ccc(C(=O)N[C@H](C)c4ccccn4)cc32)c(C)c1NC(=O)CCl [Compound 9l, (R,Z)-3-((4-(2-chloroacetamido)-3,5-dimethyl-1H-pyrrol-2-yl)methylene)-2-oxo-N-(1-(pyridin-2-yl)ethyl)indoline-5-carboxamide]
- IC50 (bovine GRK2; [3]): 9.6 ± 5 µM
- solubility thermodynamic [1]: 262 µM (≈ 125 µg/mL)
- pH After Assay [1]: 4

SMILES: Cc1[nH]c(/C=C2\C(=O)Nc3ccc(C(=O)N[C@H](C)c4cccc(Cl)c4)cc32)c(C)c1NC(=O)CCl [Compound 9m, (R,Z)-3-((4-(2-chloroacetamido)-3,5-dimethyl-1H-pyrrol-2-yl)methylene)-N-(1-(3-chlorophenyl)ethyl)-2-oxoindoline-5-carboxamide]
- IC50 (bovine GRK2; [3]): 19 ± 10 µM
- IC50 (PKA; Table 2, μM ± SD): > 250 µM

SMILES: Cc1ccc([C@@H](C)NC(=O)c2ccc3c(c2)/C(=C/c2[nH]c(C)c(NC(=O)CCl)c2C)C(=O)N3)cc1 [Compound 9n, (R,Z)-3-((4-(2-chloroacetamido)-3,5-dimethyl-1H-pyrrol-2-yl)methylene)-2-oxo-N-(1-(p-tolyl)ethyl)indoline-5-carboxamide]
- GRK2/GRK5 (GRK5; Table 2, ratio of IC50 values): 3
- IC50 (bovine GRK2; [3]): 2.1 ± 1 µM
- pH After Assay [1]: 2.5
- solubility thermodynamic ([1]; thermodynamic from solid): 252 µM and 124 µg/mL

SMILES: Cc1[nH]c(/C=C2\C(=O)Nc3ccc(C(=O)N[C@H](C)c4ccc(Cl)cc4)cc32)c(C)c1NC(=O)CCl [Compound 9o, (R,Z)-3-((4-(2-chloroacetamido)-3,5-dimethyl-1H-pyrrol-2-yl)methylene)-N-(1-(4-chlorophenyl)ethyl)-2-oxoindoline-5-carboxamide]
- IC50 (bovine GRK2; [3]): 0.7 ± 0.2 µM
- pH After Assay [1]: 4
- solubility thermodynamic ([1]; thermodynamic from solid): 205 µM and 105 µg/mL

SMILES: Cc1[nH]c(/C=C2\C(=O)Nc3ccc(C(=O)N[C@H](C)c4ccc(F)cc4)cc32)c(C)c1NC(=O)CBr [Compound 9p, (R,Z)-3-((4-(2-bromoacetamido)-3,5-dimethyl-1H-pyrrol-2-yl)methylene)-N-(1-(4-fluorophenyl)ethyl)-2-oxoindoline-5-carboxamide]
- IC50 (bovine GRK2; [3]): 3.6 ± 2 µM

SMILES: Cc1[nH]c(/C=C2\C(=O)Nc3ccc(C(=O)NC4(c5ccccc5)COC4)cc32)c(C)c1NC(=O)CCl [Compound 9t, (Z)-3-((4-(2-chloroacetamido)-3,5-dimethyl-1H-pyrrol-2-yl)methylene)-2-oxo-N-(3-phenyloxetan-3-yl)indoline-5-carboxamide]
- IC50 (bovine GRK2; [3]): 15 ± 7 µM
- IC50 (PKA; Table 2, μM ± SD): 69 ± 10 µM

SMILES: Cc1[nH]c(/C=C2\C(=O)Nc3ccc(C(=O)N[C@H](C)c4ccccc4)cc32)c(C)c1NC(=O)/C(C#N)=C/C(C)(C)C [Compound 10a, (Z)-3-((4-((E)-2-cyano-4,4-dimethylpent-2-enamido)-3,5-dimethyl-1H-pyrrol-2-yl)methylene)-2-oxo-N—((R)-1-phenylethyl)indoline-5-carboxamide]
- IC50 (bovine GRK2; [2]): 120 ± 80 µM

SMILES: Cc1[nH]c(/C=C2\C(=O)Nc3ccc(C(=O)N[C@H](C)c4ccccc4)cc32)c(C)c1NC(=O)C1CO1 (stereo partly drawn) [Compound 10l, (Z)-3-((3,5-dimethyl-4-(oxirane-2-carboxamido)-1H-pyrrol-2-yl)methylene)-2-oxo-N—((R)-1-phenylethyl)indoline-5-carboxamide]
- IC50 (bovine GRK2): > 250 µM

SMILES: Fc1ccc([C@@H]2CCNC[C@H]2COc2ccc3c(c2)OCO3)cc1 [paroxetine, reference compound]
- IC50 (PKA; Table 1, μM ± SD): 850 ± 400 µM
